Measurements reported in patent publication US20250170252A1, “QUINONE PROTECTED FORMS AND CONJUGATES” (CAMBRIDGE ENTERPRISE LIMITED, priority 2022, published 2025).

Experiments:
[1] = test system: Panc-1 pancreatic cancer cell line; experiment: CellTiter Glo viability assay, Panc-1; assay type: cell-based
Procedure: (§1) For CellTiter Glo viability assays, 10,000 cells per well were plated on Day 1 and were allowed to adhere to the plate surface for 24 hours. Optimized concentration ranges of prodrugs were determined and made via serial dilution. […] Cells were incubated with compound for 48 hours and viability was assessed on Day 4 using the CellTiter Glo Viability assay which measures metabolically active cells by quantifying the amount of ATP present.
(§2) Panc-1 cells were obtained from Tony Kouzarides' lab in the Gurdon Institute at the University of Cambridge and put into culture at passage 10 containing DMEM media (Gibco) supplemented with 1% Pen-Strep antibiotic (Gibco), 1% L-glutamine, and 10% fetal bovine serum (FBS, sterile-filtered). Aspc-1 cells were bought commercially from the American Type Culture Collection (ATCC) and put into culture containing RPMI 1640 media (Gibco) supplemented with 1% Pen-Strep antibiotic (Gibco), 1% L-glutamine, and 20% fetal bovine serum (FBS, sterile-filtered). All cell lines were started at passage 10 and passaged every 3 days by centrifuging at 1000 rpm for 4 minutes.

[2] = test system: Aspc-1 pancreatic cancer cell line; experiment: CellTiter Glo viability assay, Aspc-1; assay type: cell-based
Procedure: as §1, §2

[3] = test system: SkBr-3; experiment: Toxicity with/without β-glucuronidase, SkBr-3; assay type: cell-based
Procedure: (§3) Assays assessing cytotoxicity of β-lapachone and derivatives were performed by CellTiter-Blue assay (Promega) according to the manufacturer's instructions. Briefly, adherent cancer-cell lines were plated at 20,000 cells/well in 96 well plates or suspension cell lines were plated at a concentration of 2×10^5 cells/mL in 24 well plates. Compound stocks in media were made by dilution of DMSO stocks containing the compound of interest to obtain a final in-plate DMSO concentration of only 0.1%. Incubation was performed for 48 h. Following incubation, media was replaced with media containing CellTiter-Blue (Promega) in 1:10 dilution and the plates were incubated for 1.5-4 h. The fluorescence of the plates was recorded (excitation 555 nm, emission 585 nm, MiniMax i3x Reader, Molecular Devices).
(§4) Cell viability was calculated by division of the fluorescence intensity of treated wells by that of the calculated average fluorescence intensity of replicate negative control wells containing cells with 0.1% DMSO only. Values and reported error bars represent the mean and standard error of the mean of three triplicate repeats for each concentration tested. IC50 values were calculated using GraphPad Prism 8 software.
(§5) The potential of compound 37a, glucuronide-PHB-BL, as a prodrug was investigated. As discussed above, at physiological pH the compound has a relatively slow-release rate. Toxicity of Gluc-PHB-BL 37a was tested against a range of cell lines with and without added β-glucuronidase. Addition of the enzyme mimics conditions of the solid tumour environment.

[4] = Stability of glucuronide prodrug to incubation at pH 7.4 at 37° C.; assay type: physicochemical; settings: pH 7.4, 37° C., 6 days; no β-lapachone observed
Procedure: An experiment testing the stability of compound 37a to incubation at pH 7.4 at 37° C. was also performed.

[5] = test system: MOLM-13; experiment: Toxicity with/without β-glucuronidase, MOLM-13; assay type: cell-based
Procedure: as §3, §4, §5

[6] = test system: HEK-293T; experiment: Toxicity with/without β-glucuronidase, HEK-293T; assay type: cell-based
Procedure: as §3, §4, §5

[7] = target: T1, β-glucuronidase (Escherichia coli, UniProt P05804); experiment: Incubation with β-glucuronidase (sugar deprotection); assay type: biochemical, E. coli K-12; settings: pH 7.4, 37° C.
T1 construct: purchased Roche 03707580001
Procedure: Glucuronide prodrug (37a, b, c, d) was dissolved in DMSO to a concentration of 10 mM. A 100 mM stock solution of warfarin in DMSO was also prepared. To obtain deprotected para-hydroxybenzyl ketol species, the glucuronide stock solution was dissolved in PBS with 16.7% DMF to a concentration of 1.7 mM. 15 μL of a stock solution of R-glucuronidase from E. coli K-12 (Roche #03707580001, 140 U/mL) was added to 900 μL of this stock and incubated for 20 min at 37° C. 15 μL of a 100 mM stock of warfarin internal standard in DMSO was added. Reactions were then set up immediately. For a reaction, 30 μL of the amino-benzyl ketol/standard stock was added to 195 μL of citrate-phosphate buffer at the specified pH. Test samples were incubated at 37° C. with shaking. At the recorded time points, 20 μL aliquots of the reactions were analysed by HPLC (254 nm, Agilent 1260 Infinity). HPLC conditions: column Agilent InfinityLab Poroshell 120 SB—C18 2.7 μm, 50×4.6 mm; solvent system A=H2O+0.1% TFA, B=acetonitrile+0.1% TFA; flow=1 mL/min. Gradient: t=0-1 min 0% B, t=1-2 min 0-30% B, t=2-17 min 30-40% B, t=17-17.1 min 40-100% B, t=17.1-18 min 100% B, t=18-23 min 0% B. Relative peak area represents raw peak area (mAU*s) normalized to raw peak area of the warfarin internal standard. Values recorded are averages of three independent reactions and error bars display standard error of the mean. […]

[8] = Glucuronide kinetics assay (release of β-lapachone after β-glucuronide deprotection); assay type: physicochemical; settings: pH 7, 37° C., after β-glucuronide deprotection; first experiments
Procedure: Glucuronide prodrug (37a, b, c, d) was dissolved in DMSO to a concentration of 10 mM. A 100 mM stock solution of warfarin in DMSO was also prepared. To obtain deprotected para-hydroxybenzyl ketol species, the glucuronide stock solution was dissolved in PBS with 16.7% DMF to a concentration of 1.7 mM. 15 μL of a stock solution of R-glucuronidase from E. coli K-12 (Roche #03707580001, 140 U/mL) was added to 900 μL of this stock and incubated for 20 min at 37° C. 15 μL of a 100 mM stock of warfarin internal standard in DMSO was added. Reactions were then set up immediately. For a reaction, 30 μL of the amino-benzyl ketol/standard stock was added to 195 μL of citrate-phosphate buffer at the specified pH. Test samples were incubated at 37° C. with shaking. At the recorded time points, 20 μL aliquots of the reactions were analysed by HPLC (254 nm, Agilent 1260 Infinity). HPLC conditions: column Agilent InfinityLab Poroshell 120 SB—C18 2.7 μm, 50×4.6 mm; solvent system A=H2O+0.1% TFA, B=acetonitrile+0.1% TFA; flow=1 mL/min. Gradient: t=0-1 min 0% B, t=1-2 min 0-30% B, t=2-17 min 30-40% B, t=17-17.1 min 40-100% B, t=17.1-18 min 100% B, t=18-23 min 0% B. Relative peak area represents raw peak area (mAU*s) normalized to raw peak area of the warfarin internal standard. Values recorded are averages of three independent reactions and error bars display standard error of the mean. Values were fitted to first-order kinetics using GraphPad Prism 9 software. A positive control experiment was performed under identical conditions with known substrate 4-nitrophenyl-β-D-glucuronide (Sigma Aldrich) to confirm enzyme activity.

[9] = test system: HL-60; experiment: Toxicity with/without β-glucuronidase, HL-60; assay type: cell-based
Procedure: as §3, §4, §5

[10] = test system: range of cell lines; experiment: Toxicity of Gluc-PHB-BL against a range of cell lines with and without added β-glucuronidase; assay type: cell-based
Procedure: as §3, §4, §5

[11] = test system: HeLa; experiment: Toxicity with/without β-glucuronidase, HeLa; assay type: cell-based
Procedure: as §3, §4, §5

[12] = Homo sapiens, read-out: IC50 Gluc-PHB-BL 37a

T1 sequence (P05804 whole entry): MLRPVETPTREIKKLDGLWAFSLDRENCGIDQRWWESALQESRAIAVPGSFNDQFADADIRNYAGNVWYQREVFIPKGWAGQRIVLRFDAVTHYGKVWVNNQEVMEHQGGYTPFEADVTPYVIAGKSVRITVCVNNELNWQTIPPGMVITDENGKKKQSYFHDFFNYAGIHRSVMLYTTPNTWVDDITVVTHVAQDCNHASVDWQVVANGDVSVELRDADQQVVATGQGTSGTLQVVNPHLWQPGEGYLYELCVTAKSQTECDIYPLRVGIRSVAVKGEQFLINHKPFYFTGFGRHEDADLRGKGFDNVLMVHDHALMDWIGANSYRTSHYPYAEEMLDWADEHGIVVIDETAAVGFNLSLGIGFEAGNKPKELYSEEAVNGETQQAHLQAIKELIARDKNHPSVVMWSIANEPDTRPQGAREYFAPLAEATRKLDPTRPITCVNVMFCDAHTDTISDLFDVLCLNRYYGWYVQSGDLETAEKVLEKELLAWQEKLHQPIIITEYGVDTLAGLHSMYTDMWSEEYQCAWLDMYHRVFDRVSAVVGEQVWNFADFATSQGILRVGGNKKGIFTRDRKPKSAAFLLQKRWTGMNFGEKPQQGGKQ

CC1(C)CCC2=C(O1)c1ccccc1C(O)(Cc1ccc(O[C@@H]3O[C@H](C(=O)O)[C@@H](O)[C@H](O)[C@H]3O)cc1)C2=O (stereo partly drawn) [Compound 37a, (2S,3S,4S,5R,6S)-3,4,5-trihydroxy-6-(4-((6-hydroxy-2,2-dimethyl-5-oxo-3,4,5,6-tetrahydro-2H-benzo[h]chromen-6-yl)methyl)phenoxy)tetrahydro-2H-pyran-2-carboxylic acid]
IC50 ([1]; Homo sapiens, PANC-1, 48 h): 10.5 µM
toxicity without the β-glucuronidase enzyme ([1]; Panc-1, up to 100 μM): no toxicity
toxicity without the β-glucuronidase enzyme ([2]; Aspc-1, up to 100 μM): no toxicity
IC50 ([2]; Homo sapiens, ASPC1, 48 h): 17.4 µM
IC50 ([3]; Homo sapiens, SK-BR-3, read-out: IC50 Gluc-PHB-BL 37a): 24 µM
IC50 (37a)/ IC50 (1) ([3]; SkBr-3): 8.73
stability to incubation [4]: completely stable
IC50 ([5]; Homo sapiens, MOLM-13, read-out: IC50 Gluc-PHB-BL 37a): 78.6 µM
IC50 (37a)/ IC50 (1) ([5]; MOLM-13): 6.50
IC50 (37a)/ IC50 (1) [6]: 7.18
IC50 [6, 12]: 20.9 µM
toxicity without added β-glucuronidase ([6]; up to 100 μM): low toxicity
sugar deprotection reaction [7]: rapid
release rate of β-lapachone, kobs [8]: 1.09e-06 s⁻¹
IC50 (37a)/ IC50 (1) ([9]; HL-60): 3.51
IC50 ([9]; Homo sapiens, HL-60, read-out: IC50 Gluc-PHB-BL 37a): 15.2 µM
toxicity without added β-glucuronidase ([10]; concentrations up to 100 μM, apart from HEK-293T): not seen
times less toxic than β-lapachone 1 (comparison of estimated IC50) ([10]; treated with β-glucuronidase, 48 h): 3.5-9.7 times
IC50 (37a)/ IC50 (1) [11]: 9.74
IC50 [11, 12]: 41.5 µM
